Several values for one entry are separate records, joined by “and”; a condition that tells them apart may be missing. Identical values can stand only once.
How the values were obtained:
[1] = test system: T. b. brucei trypomastigote; assay: T. b. brucei resazurin (Alamar Blue) viability assay; format: cell-based, Trypanosoma brucei brucei; settings: for IC50: highest concentration 40 μM, read-out: T. b. brucei trypomastigote IC50 ± SEM
Method: Compound activity against two members of another clinically important group of parasites, the kinetoplastids T. cruzi and T. b. brucei was determined. The sensitive high content imaging assay used to determine compound activity against T. cruzi assesses the intracellular amastigote life form of the parasite in the 3T3 host cell. […] The T. b. brucei assay employs the REDOX indicator Alamar Blue to assess viability, which was developed into a 384-well assay format.
Compound activity against T. b. brucei was assessed in a resazurin-based viability assay in concentration-response assays, without technical repeats, in two experimental replicates at a highest concentration of 40 μM, as previously described.

[2] = test system: P. falciparum asexual blood stages / early gametocytes; assay: Chemical rescue of MMV000570 (Table S3B; PfAS and PfEG replicates, columns not assignable); format: cell-based, Plasmodium falciparum; settings: stage and replicate not assignable
Method: (§1) An imaging based assay was utilised to assess the chemical rescue on asexual stages of P. falciparum as described previously. All the pathway intermediates were purchased from Sigma. CoA and dP-CoA were dissolved in sterile distilled water to obtain a 20 mM stock solution, which was then aliquoted and stored at -20 °C until use. […] Each pathway intermediate was tested on the parasites at a range of concentrations to assess potential toxicity. […] On early stage P. falciparum gametocytes the same concentrations as for CoA were tested for dP-CoA; against asexual blood stage P. falciparum, late stage gametocytes and Trypanosoma b. brucei five dP-CoA concentrations were tested (2 mM, 1.5 mM, 1 mM, 0.75 mM and 0.5 mM).
(§2) The same concentration ranges of the CoA pathway intermediates were supplemented to parasites treated with the experimental compounds. […] The negative control used in each assay was 0.4% DMSO, whilst the positive control was 2 μM artemisinin for asexual P. falciparum blood stages and 5 μM puromycin for all gametocyte stages and T. b. brucei. The percentage growth of the respective parasites following compound treatment was determined using Microsoft ® Excel 2010, and compared with their controls. All rescue assays were performed as two independent experiments each in duplicate point.

MCF7 cells = assay: Resazurin cytotoxicity assay, MCF7; format: cell-based, human
Description: (§3) An initial indication of compound selectivity over human cells had previously been obtained through comparison of the compounds’ IC50 values against P. falciparum asexual stages and HEK293 [22]. In the present study, the selectivity investigation was extended to a small panel of human cancer cell lines, namely the estrogen receptor (ER)-positive breast cancer cell line MCF7, the ER-negative MDA-MB-231, as well as the human prostate cancer line, PC-3. Additionally, the cytotoxic effects on mouse embryonic fibroblast cell line 3T3, which serves as the host cell for T. cruzi in our image-based amastigote assay, were investigated.
(§4) Cytotoxicity of the compounds was assessed against a panel of human cancer cell lines, namely the estrogen receptor (ER)-positive breast cancer cell line MCF7, the ER-negative MDA-MB-231 and the prostate cancer line PC-3. All the cell lines were purchased from ATCC and maintained as previously described. Two biological replicates consisting of two technical replicates each were performed to generate concentration response curves (CRC) with a final highest concentration of 40 μM. A resazurin-based assay was utilized to determine cell viability as described earlier. Additionally, the cytotoxic effects on the mouse embryonic fibroblast cell line 3T3 were assessed as part of the Trypanosoma cruzi amastigote image-based assay as outlined in [35].

PC-3 cells = assay: Resazurin cytotoxicity assay, PC-3; format: cell-based, human
Description: as §3, §4

HEK293 cells = settings: as previously reported; read-out: HEK293 cytotoxicity IC50 ± SEM; cited from earlier work
3T3 cells = assay: 3T3 host cell cytotoxicity (part of T. cruzi amastigote image-based assay); parameters: species or system mouse; settings: bound = highest concentration with < 50 % inhibition; read-out: 3T3 cytotoxicity IC50 ± SEM
Description: as §3, §4

[3] = test system: P. falciparum asexual blood stages (PfAS); assay: Chemical rescue with CoA pathway intermediates, asexual stages; format: cell-based, Plasmodium falciparum; settings: for Percent rescue ± SEM by CoA, PfAS: CoA 0.8 mM; for Percent rescue ± SEM by CoA, PfAS / Percent rescue ± SEM by dephospho CoA, PfAS / Percent rescue ± SEM by pantethine, PfAS / Percent rescue ± SEM by pantothenate, PfAS: inhibitor at IC80; for Percent rescue ± SEM by dephospho CoA, PfAS: dP-CoA 0.8 mM; for Percent rescue ± SEM by pantethine, PfAS: pantethine 125 μM; for Percent rescue ± SEM by pantothenate, PfAS: pantothenate 300 μM
Method: (§5) Pantothenate is the first substrate of the pathway (Fig. 1) and its addition was intended to rescue the action of possible competitive inhibitors of the first enzyme, PanK. […] It is not known, whether P. falciparum is capable of pantetheine phosphorylation for utilization in CoA synthesis. […] Finally, the rescue ability of dP-CoA, the final substrate of CoA synthesis, was tested. […] Inhibitors competing with dP-CoA for DPCK binding were expected to be displaced, thereby rescuing parasite survival, by dP-CoA supplementation in a concentration dependent manner.
as §1
as §2, with “compounds. The inhibitors were used at their respective final assay concentration of IC80 (as determined previously in the corresponding P. falciparum development stage or T. b. brucei assay).” for “compounds.”

T. cruzi amastigotes = assay: T. cruzi amastigote image-based assay in 3T3 host cells; format: cell-based, Trypanosoma cruzi; settings: 40 µM per footnote; given if an IC50 could not be calculated
Method: The next step taken was to determine whether the activity of the compounds was confined to P. falciparum, or whether it extended to other protozoan parasites. Compound activity against two members of another clinically important group of parasites, the kinetoplastids T. cruzi and T. b. brucei was determined. The sensitive high content imaging assay used to determine compound activity against T. cruzi assesses the intracellular amastigote life form of the parasite in the 3T3 host cell. It is important to simultaneously assess compound activity against 3T3 cells to determine potential cytotoxicity against the host cell line, since this could result in a false positive outcome. The T. b. brucei assay employs the REDOX indicator Alamar Blue to assess viability, which was developed into a 384-well assay format.
Compound activity against T. cruzi amastigotes was assessed in an image-based assay in single point concentration-response and three biological replicates, at a final highest compound concentration of […], as previously described.

T. cruzi trypomastigotes = assay: T. cruzi trypomastigote PrestoBlue assay; format: cell-based, Trypanosoma cruzi; settings: for T. cruzi trypomastigote percent inhibition at the highest concentration tested: 40 µM, given if an IC50 could not be calculated
Method: Compound activity against T. cruzi trypomastigotes was assessed in two independent experiments, without technical repeats, at a final highest compound concentration of 40 μM in concentration-response PrestoBlue assay, as previously described.

MDA-MB-231 cells = assay: Resazurin cytotoxicity assay, MDA-MB-231; format: cell-based, human
Description: as §3, §4

[4] = test system: early stage gametocytes (stage I to IIb/III) of P. falciparum line NF54^Pfs16; settings: cited from earlier work
[5] = test system: P. falciparum asexual blood stage; settings: cited from earlier work; for IC50: as previously reported, read-out: Asexual P. falciparum IC50 ± SEM
[6] = test system: P. falciparum early stage gametocytes (PfEG, stage I-III); assay: Chemical rescue with CoA pathway intermediates, early stage gametocytes; format: cell-based, Plasmodium falciparum; settings: inhibitor at IC80
Method: as §5, §1, §2

[7] = molecular target: early stage gametocytes (stage I to IIb/III) of P. falciparum line NF54^Pfs16; assay: Gametocyte luciferase assay, early stage; format: cell-based, Plasmodium falciparum; settings: highest concentration 40 μM; read-out: Early stage gametocyte IC50 ± SEM
Description: (§6) To investigate a potential role of CoA biosynthesis for host to vector transmission of the malaria parasite, we investigated the activity of our compounds on P. falciparum gametocytes, the sexual stages of P. falciparum, essential for malaria transmission. […] Parasite stage-specificity and gametocytocidal activity of the compounds was therefore investigated, utilizing a luciferase-based approach on early stage (development from stage I to IIb/III [30]) and late stage (IV to V [51]) gametocytes.
(§7) Induction of P. falciparum gametocyte differentiation and gametocyte culturing were performed as previously described. Compound activity against early stage gametocytes (covering the development from stage I to IIb/III) and late stage gametocytes (stage IV to V) of the recombinant P. falciparum line NF54^Pfs16 was assessed in concentration-response assays, in two experimental replicates consisting of two technical repeats each, at a highest concentration of 40 μM, as described earlier.

[8] = test system: late stage gametocytes (stage IV to V) of P. falciparum line NF54^Pfs16; assay: Gametocyte luciferase assay, late stage; format: cell-based, Plasmodium falciparum
Description: as §6, §7

[9] = test system: panel of human cancer cell lines (MCF7, MDA-MB-231, PC-3); assay: Cytotoxicity across the panel of cell lines; format: cell-based
Description: as §3, §4

[10] = test system: P. falciparum developmental stages; assay: Activity across all P. falciparum life-cycle stages tested (asexual, early and late gametocytes); format: cell-based, Plasmodium falciparum; settings: early and late stage gametocytes
Method: as §7

[11] = 40 µM, given if an IC50 could not be calculated

SMILES: CCc1ccc(Nc2cc(C)c3ccc(O)cc3n2)cc1.Cl [MMV000570]
- IC50 [1]: 5.85 ± 1.11 µM
- percent rescue averages ± SEM by CoA, tested at IC80 concentration [2]: 6.4% and 8.1% and -1.6% and 26.7%
- percent rescue averages ± SEM by pantothenate, tested at IC50 concentration [2]: 3.5% and -0.6% and 4.3% and 28.6%
- percent rescue averages ± SEM by pantothenate, tested at IC80 concentration [2]: 3.1% and 2.2% and 2.3% and 5.2%
- MCF7 percent inhibition at the highest concentration tested (MCF7 cells; 40 µM): 96%
- PC-3 percent inhibition at the highest concentration tested (PC-3 cells; 40 µM): 98%
- IC50 (HEK293 cells): ~40 µM
- IC50 (3T3 cells): > 40 µM
- Rescue of growth inhibitory effect by any of the intermediates (in words) ([3]; compound at 1 μM): could not effectively be rescued by any of the intermediates
- T. cruzi amastigote percent inhibition at the highest concentration tested (T. cruzi amastigotes): 96%
- T. cruzi trypomastigote percent inhibition at the highest concentration tested (T. cruzi trypomastigotes): 100%
- MDA-MB-231 percent inhibition at the highest concentration tested (MDA-MB-231 cells; 40 µM): 90%

SMILES: COc1ccc2c(=O)cc(C(Cl)(Cl)Cl)oc2c1 [MMV665820]
- IC50 [1]: 2.5 µM
- inhibition against early stage gametocytes in earlier dose-response ([4]; 1 μM): about 50%
- IC50 [5]: 0.58 ± 0.08 µM
- plateau of P. falciparum growth inhibition ([5]; asexual blood stage): 100%
- inhibition plateau level of the concentration-response curve, PC-3 (PC-3 cells): 80%
- Percent rescue ± SEM by pantethine, PfEG ([6]; pantethine 10 mM): No
- Percent rescue ± SEM by pantothenate, PfEG ([6]; pantothenate 625 μM): No
- IC50 [7]: 0.44 ± 0.03 µM
- Late stage gametocyte percent inhibition at the highest concentration tested [8, 11]: 69%
- Percent rescue ± SEM by CoA, PfAS [3]: 113.3 ± 12.3%
- Percent rescue ± SEM by dephospho CoA, PfAS [3]: 88.6 ± 18.3%
- Percent rescue ± SEM by pantethine, PfAS [3]: No
- Percent rescue ± SEM by pantothenate, PfAS [3]: No
- T. cruzi amastigote percent inhibition at the highest concentration tested (T. cruzi amastigotes): 62%
- IC50 ([9]; MCF7, MDA-MB-231, PC-3, read-out: IC50 range against the cancer cell lines): 0.27 to 0.43 µM
- T. cruzi trypomastigote percent inhibition at the highest concentration tested (T. cruzi trypomastigotes): 100%
- inhibition plateau level of the concentration-response curve, MDA-MB-231 (MDA-MB-231 cells): 43%

SMILES: OC1CCCCC1C1(NC(=S)Nc2ccccc2)CCCCC1 (centres unmarked) [MMV665980]
- T. b. brucei trypomastigote percent inhibition at the highest concentration tested [1, 11]: 100%
- IC50 (MCF7 cells; highest concentration 40 μM, bound = highest concentration with < 50 % inhibition, read-out: MCF7 cytotoxicity IC50 ± SEM): > 40 µM
- gametocytocidal activity in earlier screen versus hit threshold (in words) ([4]; screening concentration 5 μM, threshold 50% activity): lower than the hit threshold
- IC50 [5]: 6.31 ± 1.06 µM
- IC50 (PC-3 cells; highest concentration 40 μM, bound = highest concentration with < 50 % inhibition, read-out: PC-3 cytotoxicity IC50 ± SEM): > 20 µM
- IC50 (HEK293 cells): > 40 µM
- IC50 [7]: 7.54 ± 0.39 µM
- IC50 ([8]; highest concentration 40 μM, read-out: Late stage gametocyte IC50 ± SEM): 4.15 ± 0.56 µM
- IC50 (3T3 cells): > 40 µM
- Percent rescue ± SEM by CoA, PfAS [3]: 54.4 ± 2.5%
- Percent rescue ± SEM by dephospho CoA, PfAS [3]: 46.0 ± 2.6%
- Percent rescue ± SEM by pantethine, PfAS [3]: No
- Percent rescue ± SEM by pantothenate, PfAS [3]: No
- T. cruzi amastigote percent inhibition at the highest concentration tested (T. cruzi amastigotes): 70%
- cytotoxicity against any of the cell lines investigated (in words) ([9]; up to the highest tested concentration of 40 μM): no or only negligible cytotoxicity
- IC50 (T. cruzi trypomastigotes; highest concentration 40 μM, read-out: T. cruzi trypomastigote IC50 ± SEM): 4.42 ± 0.89 µM
- activity against all P. falciparum development stages tested (in words) [10]: moderate, single digit micromolar activity
- IC50 (MDA-MB-231 cells; highest concentration 40 μM, bound = highest concentration with < 50 % inhibition, read-out: MDA-MB-231 cytotoxicity IC50 ± SEM): > 40 µM
